# Biological target: T1, GST-JAK2(808-1132) (Homo sapiens, UniProt O60674)
# T1 construct: GST-JAK2(808-1132) is purchased from Invitrogen; purchased Invitrogen (Carlsbad, USA) #4288
# Assay: EPK JAK/TYK-kinase family profiling assay (Caliper mobility shift), JAK2
# Format: biochemical
# Conditions: Caliper mobility shift assay of Example 187, 20 μM ATP, read-out: IC50 with Test in present Example
# From the text: All four kinases of the JAK/TYK-kinase family are used as purified recombinant GST-fusion proteins, containing the active kinase domains. GST-JAK1(866-1154), GST-JAK3(811-1124), and GST-TYK2(888-1187) are expressed and purified by affinity chromatography. GST-JAK2(808-1132) is purchased from Invitrogen (Carlsbad, USA, #4288).
# The kinase assays are based on the Caliper mobility shift assay using the LabChip 3000 systems. This technology is similar to capillary electrophoresis and uses charge driven separation of substrate and product in a microfluidic chip.
# All kinase reactions are performed in 384 well microtiter plates in a total reaction volume of 18 μl. The assay plates are prepared with 0.1 μl per well of test compound in the appropriate test concentration, as described under the section “preparation of compound dilutions”. The reactions are started by combining 9 μl of substrate mix (consisting of peptide and ATP) with 9 μl of kinase dilution. The reactions are incubated for 60 minutes at 30° C. and stopped by adding 70 μl of stop buffer (100 mM Hepes, 5% DMSO, 0.1% Coating reagent, 10 mM EDTA, 0.015% Brij 35).
# Fluorescently labeled synthetic peptides are used as substrates in all reactions. […] Specific assay conditions are described in Table 1:
# The terminated reactions are transferred to a Caliper LabChip 3000 reader (Caliper Life Sciences, Mountain View, Calif., USA) and the turnover of each reaction is measured by determining the substrate/product ratio.
# Test compounds are dissolved in DMSO (10 mM) and transferred into 1.4 mL flat bottom or V-shaped Matrix tubes carrying a unique 2D matrix chip by individual compound hubs. The numbers of these chips are distinctively linked to the individual compound identification numbers. The stock solutions are stored at −20° C. if not used immediately. For the test procedure the vials are defrosted and identified by a scanner whereby a working sheet is generated that guides the subsequent working steps.
# Compound dilutions are made in 96 well plates. This format enabled the assay of maximally 40 individual test compounds at 8 concentrations (single points) including 4 reference compounds. The dilution protocol includes the production of pre-dilution plates, master plates and assay plates:
# Pre-dilution plates: 96 polypropylene well plates are used as pre-dilution plates. A total of 4 pre-dilution plates are prepared including 10 test compounds each on the plate positions A1-A10, one standard compound at A11 and one DMSO control at A12. All dilution steps are done on a Hamilton STAR robot (Hamilton, Co., Reno, Nev., USA).
# Master plates: 100 μL of individual compound dilutions including standard compound and controls of the 4 “pre-dilution plates” are transferred into a 384 “master plate” including the following concentrations 1,820, […], 182, 54.6, 18.2, 5.46, 1.82 and 0.546 μM, respectively in 90% of DMSO.
# Assay plates: Identical assay plates are then prepared by pipetting 100 nL each of compound dilutions of the master plates into 384-well “assay plates”. In the following the compounds are mixed with 9 μL of assays components plus 9 μL enzyme corresponding to a 1:181 dilution steps enabling the final concentration of 10, 3.0, 1.0, 0.3, 0.1, 0.03, 0.01 and 0.003 μM, respectively. The preparation of the master plates are handled by the Matrix PlateMate Plus robot (Thermo Fisher Scientific, Handforth, Cheshire, United Kingdom) and replication of assay plates by the HummingBird robot (Genomic Solutions, Inc., Ann Arbor, Mich., USA).
# T1 sequence (O60674 808-1132): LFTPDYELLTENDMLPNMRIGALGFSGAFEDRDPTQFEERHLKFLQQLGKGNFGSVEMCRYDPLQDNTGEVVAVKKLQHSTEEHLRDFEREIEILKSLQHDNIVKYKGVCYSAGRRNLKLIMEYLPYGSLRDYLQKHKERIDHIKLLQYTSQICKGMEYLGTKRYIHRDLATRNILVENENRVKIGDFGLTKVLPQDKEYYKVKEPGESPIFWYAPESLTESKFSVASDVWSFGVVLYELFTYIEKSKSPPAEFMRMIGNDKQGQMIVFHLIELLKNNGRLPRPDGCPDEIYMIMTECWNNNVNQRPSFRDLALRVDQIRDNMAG
row,SMILES,IC50
1,"CN(C)C(=O)c1ccc(Nc2nc3cccc(-c4ccc(CS(C)(=O)=O)cc4)c3o2)cc1 [Example 71, 4-[7-(4-Methanesulfonylmethyl-phenyl)-benzooxazol-2-ylamino]-N,N-dimethyl-benzamide]",15 nM
2,"O=C(c1ccc(-c2cccc3nc(Nc4ccc(N5CCNCC5)cc4)oc23)cc1F)N1CCOCC1 [Example 91, {2-Fluoro-4-[2-(4-piperazin-1-yl-phenylamino)-benzooxazol-7-yl]-phenyl}-morpholin-4-yl-methanone]",64 nM
3,"Cc1cc(Nc2nc3cccc(-c4ccc(S(C)(=O)=O)cc4)c3o2)ccc1N1CCN(C(C)C)CC1 [Example 105, [4-(4-Isopropyl-piperazin-1-yl)-3-methyl-phenyl]-[7-(4-methanesulfonyl-phenyl)-benzooxazol-2-yl]-amine]",20 nM
4,"Cc1cc(Nc2nc3cccc(-c4cc(F)c(CN5CCOCC5)c(F)c4)c3o2)ccc1C(=O)NCCN(C)C [Example 122, 4-[7-(3,5-Difluoro-4-morpholin-4-ylmethyl-phenyl)-benzooxazol-2-ylamino]-N-(2-dimethylamino-ethyl)-2-methyl-benzamide]",11.1 nM
5,"CCN(CC)C(=O)c1ccc(Nc2nc3cccc(-c4ccc(CC(=O)N5CCS(=O)(=O)CC5)cc4)c3o2)cc1OC [Example 123, 4-(7-{4-[2-(1,1-Dioxo-1lambda*6*-thiomorpholin-4-yl)-2-oxo-ethyl]-phenyl}-benzooxazol-2-ylamino)-N,N-diethyl-2-methoxy-benzamide]",5.4 nM
6,"Cc1cc(Nc2nc3cccc(-c4ccc(C(=O)N5CCOCC5)c(F)c4)c3o2)ccc1C(=O)N(C)C [Example 78, 4-{7-[3-Fluoro-4-(morpholine-4-carbonyl)-phenyl]-benzooxazol-2-ylamino}-2, N,N-trimethyl-benzamide]",4.5 nM
7,"Cc1cc(Nc2nc3cccc(-c4ccc(C(=O)N5CCOCC5)cc4)c3o2)ccc1C(=O)N(C)C [Example 69, 2,N,N-Trimethyl-4-{7-[4-(morpholine-4-carbonyl)-phenyl]-benzooxazol-2-ylamino}-benzamide]",7.9 nM
8,"Cc1cc(Nc2nc3cccc(-c4cc(F)c(CN5CCOCC5)c(F)c4)c3o2)ccc1C(=O)N(C)CCN(C)C [Example 158, 4-[7-(3,5-Difluoro-4-morpholin-4-ylmethyl-phenyl)-benzooxazol-2-ylamino]-N-(2-dimethylamino-ethyl)-2,N-dimethyl-benzamide]",21 nM
9,"CS(=O)(=O)Nc1cccc(Nc2nc3cccc(-c4ccc(C(=O)N5CCOCC5)cc4)c3o2)c1 [Example 148, N-(3-{7-[4-(Morpholine-4-carbonyl)-phenyl]-benzooxazol-2-ylamino}-phenyl)-methanesulfonamide]",50 nM
10,"Cc1cc(-c2cccc3nc(Nc4cccc(N5CCN(C)CC5)c4)oc23)ccc1C(=O)N1CCOCC1 [Example 129, (2-Methyl-4-{2-[3-(4-methyl-piperazin-1-yl)-phenylamino]-benzooxazol-7-yl}-phenyl)-morpholin-4-yl-methanone]",45 nM

# Continued, values first:
row,IC50,SMILES
1,19 nM,"CN1CCN(c2cccc(Nc3nc4cccc(-c5cc(F)c(CN6CCS(=O)(=O)CC6)c(F)c5)c4o3)c2)CC1 [Example 128, {7-[4-(1,1-Dioxo-1lambda*6*-thiomorpholin-4-ylmethyl)-3,5-difluoro-phenyl]-benzooxazol-2-yl}-[3-(4-methyl-piperazin-1-yl)-phenyl]-amine]"
2,< 3 nM,"CCN1CCN(c2ccc(Nc3nc4cccc(-c5ccc(CN6CCS(=O)(=O)CC6)c(F)c5)c4o3)cc2C)CC1 [Example 88, {7-[4-(1,1-Dioxo-1lambda*6*-thiomorpholin-4-ylmethyl)-3-fluoro-phenyl]-benzooxazol-2-yl}-[4-(4-ethyl-piperazin-1-yl)-3-methyl-phenyl]-amine]"
3,26 nM,"CCN1CCN(c2ccc(Nc3nc4ccnc(-c5cc(F)c(CN6CCS(=O)(=O)CC6)c(F)c5)c4o3)cc2C)CC1 [Example 153, {4-[4-(1,1-Dioxo-1lambda*6*-thiomorpholin-4-ylmethyl)-3,5-difluoro-phenyl]-oxazolo[5,4-c]pyridin-2-yl}-[4-(4-ethyl-piperazin-1-yl)-3-methyl-phenyl]-amine]"
4,21 nM,"CC(=O)NC1Cc2ccc(Nc3nc4cccc(-c5ccc(CN6CCOCC6)c(F)c5)c4o3)cc2C1 (centres unmarked) [Example 132, N-{5-[7-(3-Fluoro-4-morpholin-4-ylmethyl-phenyl)-benzooxazol-2-ylamino]-indan-2-yl}-acetamide]"
5,16.5 nM,"CCN1CCN(c2ccc(Nc3nc4cccc(-c5ccc(C(C)(C)C(=O)N6CCOCC6)cc5)c4o3)cc2C)CC1 [Example 111, 2-(4-{2-[4-(4-Ethyl-piperazin-1-yl)-3-methyl-phenylamino]-benzooxazol-7-yl}-phenyl)-2-methyl-1-morpholin-4-yl-propan-1-one]"
6,6.85 nM,"CN1CCN(c2ccc(Nc3nc4cccc(-c5cc(F)c(CN6CCS(=O)(=O)CC6)c(F)c5)c4o3)cc2)CC1 [Example 95, {7-[4-(1,1-Dioxo-1lambda*6*-thiomorpholin-4-ylmethyl)-3,5-difluoro-phenyl]-benzooxazol-2-yl}-[4-(4-methyl-piperazin-1-yl)-phenyl]-amine]"
7,7.25 nM,"Cc1cc(Nc2nc3cccc(-c4cc(F)c(CN5CCS(=O)(=O)CC5)c(F)c4)c3o2)ccc1N1CCOCC1 [Example 164, {7-[4-(1,1-Dioxo-1lambda*6*-thiomorpholin-4-ylmethyl)-3,5-difluoro-phenyl]-benzooxazol-2-yl}-(3-methyl-4-morpholin-4-yl-phenyl)-amine]"
8,18 nM,"Cc1cc(Nc2nc3cccc(-c4cc(F)c(CN5CCOCC5)c(F)c4)c3o2)ccc1N1CCN(C2CC2)CC1 [Example 160, [4-(4-Cyclopropyl-piperazin-1-yl)-3-methyl-phenyl]-[7-(3,5-difluoro-4-morpholin-4-ylmethyl-phenyl)-benzooxazol-2-yl]-amine]"
9,5.15 nM,"Cc1cc(Nc2nc3cccc(-c4ccc(CC(=O)N5CCOCC5)c(F)c4)c3o2)ccc1C(=O)N1CCN(C)CC1 [Example 73, 2-(2-Fluoro-4-{2-[3-methyl-4-(4-methyl-piperazine-1-carbonyl)-phenylamino]-benzooxazol-7-yl}-phenyl)-1-morpholin-4-yl-ethanone]"
10,56.5 nM,"CN1CCN(c2ccc(Nc3nc4cccc(-c5ccc(C(=O)N6CCOCC6)c(F)c5)c4o3)cc2C#N)CC1 [Example 90, 5-{7-[3-Fluoro-4-(morpholine-4-caronyl)-phenyl]-benzooxazol-2-ylamino}-2-(4-methyl-piperazin-1-yl)-benzonitrile]"
11,4.35 nM,"Cc1cc(Nc2nc3cccc(-c4cc(F)c(CN5CCS(=O)(=O)CC5)c(F)c4)c3o2)ccc1C(=O)N1CCCC1 [Example 96, (4-{7-[4-(1,1-Dioxo-1lambda*6*-thiomorpholin-4-ylmethyl)-3,5-difluoro-phenyl]-benzooxazol-2-ylamino}-2-methyl-phenyl)-pyrrolidin-1-yl-methanone]"
12,6.15 nM,"Cc1cc(-c2cccc3nc(Nc4ccc(N5CCN(C(C)C)CC5)c(C)c4)oc23)ccc1C(=O)N1CCOCC1 [Example 106, (4-{2-[4-(4-Isopropyl-piperazin-1-yl)-3-methyl-phenylamino]-benzooxazol-7-yl}-2-methyl-phenyl)-morpholin-4-yl-methanone]"
13,210 nM,Cc1cc(Nc2nc3cccc(-c4cc(F)c(CN5CCOCC5)c(F)c4)c3o2)ccc1N1CCN(CCC(F)(F)F)CC1 [Example 121]
